# What was measured:
# Conditions in all cases: 48 h
# [1] = test system: P12-Ichikawa; assay: AUC of viability dose-response curve (% viability x log10 dose units); higher = less sensitive
# How it was run: (§1)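 Medium-adapted leukemia cells in 1536-well plates, at 500 or 1000 cells/well, were incubated for 48 h at 37°C with library compounds in DMSO at 11 threefold doses from 47 μM to 0.79 nM. CellTiter-Glo One luminescence normalised per plate to DMSO and cell-free wells was fitted with a four-parameter log-logistic model over log10 doses. Area under the curve was integrated from this fit by trapezoidal rule, with curves beyond full viability scaled and failed quality-control curves removed.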
# [2] = test system: NOMO1; assay: as above
# How it was run: as §1
# [3] = test system: P12-Ichikawa; assay: cell viability relative to DMSO control; higher = less cytotoxic
# How it was run: (§2)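 NOMO1 or SEM cells were plated at 500 cells/well and P12-Ichikawa cells at 1000 cells/well in 1536-well plates (5 μl), after each leukemia line had been adapted for at least four passages in each medium. Pin dosing delivered library compounds in DMSO at 11 threefold concentrations, 47 μM to 0.79 nM. CellTiter-Glo One luminescence was read after 48 h at 37°C. Viability is reported as a per-plate percentage of DMSO wells, with cell-free wells as background.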
# [4] = test system: SEM cells; assay: as above
# How it was run: as §2
# [5] = test system: NOMO1; assay: as above
# How it was run: as §2
# [6] = RPMI 5 mM glucose + 10% dialyzed FBS
# [7] = HPLM + 10% dialyzed FBS, 0.000781 µM
# [8] = HPLM + 10% dialyzed FBS, 0.00234 µM
# [9] = HPLM + 10% dialyzed FBS, 0.00702 µM
# [10] = HPLM + 10% dialyzed FBS, 0.0211 µM
# [11] = HPLM + 10% dialyzed FBS, 0.0632 µM
# [12] = HPLM + 10% dialyzed FBS, 0.19 µM
# [13] = HPLM + 10% dialyzed FBS, 0.569 µM
# [14] = HPLM + 10% dialyzed FBS, 1.71 µM
# [15] = HPLM + 10% dialyzed FBS, 5.12 µM
# [16] = HPLM + 10% dialyzed FBS, 15.4 µM
# [17] = HPLM + 10% dialyzed FBS, 46.1 µM
# [18] = RPMI 5 mM glucose + 10% FBS, 0.000781 µM
# [19] = RPMI 5 mM glucose + 10% FBS, 0.00234 µM
# [20] = RPMI 5 mM glucose + 10% FBS, 0.00702 µM
# [21] = RPMI 5 mM glucose + 10% FBS, 0.0211 µM
# [22] = RPMI 5 mM glucose + 10% FBS, 0.0632 µM
# [23] = RPMI 5 mM glucose + 10% FBS, 0.19 µM
# [24] = RPMI 5 mM glucose + 10% FBS, 0.569 µM
# [25] = RPMI 5 mM glucose + 10% FBS, 1.71 µM
# [26] = RPMI 5 mM glucose + 10% FBS, 5.12 µM
# [27] = RPMI 5 mM glucose + 10% FBS, 15.4 µM
# [28] = RPMI 5 mM glucose + 10% FBS, 46.1 µM
# [29] = RPMI 5 mM glucose + 10% dialyzed FBS, 0.000781 µM
# [30] = RPMI 5 mM glucose + 10% dialyzed FBS, 0.00234 µM
# [31] = RPMI 5 mM glucose + 10% dialyzed FBS, 0.00702 µM
# [32] = RPMI 5 mM glucose + 10% dialyzed FBS, 0.0211 µM
# [33] = RPMI 5 mM glucose + 10% dialyzed FBS, 0.0632 µM
# [34] = RPMI 5 mM glucose + 10% dialyzed FBS, 0.19 µM
# [35] = RPMI 5 mM glucose + 10% dialyzed FBS, 0.569 µM
# [36] = RPMI 5 mM glucose + 10% dialyzed FBS, 1.71 µM
# [37] = RPMI 5 mM glucose + 10% dialyzed FBS, 5.12 µM
# [38] = RPMI 5 mM glucose + 10% dialyzed FBS, 15.4 µM
# [39] = RPMI 5 mM glucose + 10% dialyzed FBS, 46.1 µM
smiles,measurement,setting,value
O=C(Cc1ccc(-c2ccc(OCCN3CCOCC3)cc2)cn1)NCc1ccccc1,AUC of viability dose-response curve,[1]; HPLM + 10% dialyzed FBS,200
same,AUC of viability dose-response curve,[1]; RPMI 5 mM glucose + 10% FBS,205
same,AUC of viability dose-response curve,[1]; [6],222
same,AUC of viability dose-response curve,[2]; HPLM + 10% dialyzed FBS,294
same,AUC of viability dose-response curve,[2]; RPMI 5 mM glucose + 10% FBS,263
same,AUC of viability dose-response curve,[2]; [6],277
same,cell viability,[3]; [7],107%
same,cell viability,[3]; [8],113%
same,cell viability,[3]; [9],114%
same,cell viability,[3]; [10],85.6%
same,cell viability,[3]; [11],36.1%
same,cell viability,[3]; [12],17.3%
same,cell viability,[3]; [13],14%
same,cell viability,[3]; [14],13.2%
same,cell viability,[3]; [15],10.3%
same,cell viability,[3]; [16],9.64%
same,cell viability,[3]; [17],11.6%
same,cell viability,[3]; [18],114%
same,cell viability,[3]; [19],114%
same,cell viability,[3]; [20],123%
same,cell viability,[3]; [21],97%
same,cell viability,[3]; [22],40%
same,cell viability,[3]; [23],25.9%
same,cell viability,[3]; [24],15.6%
same,cell viability,[3]; [25],15.1%
same,cell viability,[3]; [26],10.4%
same,cell viability,[3]; [27],8.04%
same,cell viability,[3]; [28],8.38%
same,cell viability,[3]; [29],122%
same,cell viability,[3]; [30],118%
same,cell viability,[3]; [31],119%
same,cell viability,[3]; [32],112%
same,cell viability,[3]; [33],33.3%
same,cell viability,[3]; [34],35%
same,cell viability,[3]; [35],22.9%
same,cell viability,[3]; [36],22.2%
same,cell viability,[3]; [37],13.6%
same,cell viability,[3]; [38],11.6%
same,cell viability,[3]; [39],16.6%
same,cell viability,[4]; [7],96%
same,cell viability,[4]; [8],95.9%
same,cell viability,[4]; [9],106%
same,cell viability,[4]; [10],67.9%
same,cell viability,[4]; [11],28.9%
same,cell viability,[4]; [12],22.9%
same,cell viability,[4]; [13],21.6%
same,cell viability,[4]; [14],20.8%
same,cell viability,[4]; [15],18.9%
same,cell viability,[4]; [16],15.2%
same,cell viability,[4]; [17],10.5%
same,cell viability,[4]; [18],79.9%
same,cell viability,[4]; [19],84.5%
same,cell viability,[4]; [20],87%
same,cell viability,[4]; [21],57.9%
same,cell viability,[4]; [22],18.9%
same,cell viability,[4]; [23],12.9%
same,cell viability,[4]; [24],14.8%
same,cell viability,[4]; [25],13.6%
same,cell viability,[4]; [26],12.2%
same,cell viability,[4]; [27],4.65%
same,cell viability,[4]; [28],2.89%
same,cell viability,[4]; [29],93.6%
same,cell viability,[4]; [30],90.8%
same,cell viability,[4]; [31],93.8%
same,cell viability,[4]; [32],70.8%
same,cell viability,[4]; [33],30.3%
same,cell viability,[4]; [34],19.1%
same,cell viability,[4]; [35],22.4%
same,cell viability,[4]; [36],20%
same,cell viability,[4]; [37],17.3%
same,cell viability,[4]; [38],9.97%
same,cell viability,[4]; [39],7.04%
same,cell viability,[5]; [7],118%
same,cell viability,[5]; [8],102%
same,cell viability,[5]; [9],123%
same,cell viability,[5]; [10],111%
same,cell viability,[5]; [11],43.7%
same,cell viability,[5]; [12],41.9%
same,cell viability,[5]; [13],43.8%
same,cell viability,[5]; [14],53.7%
same,cell viability,[5]; [15],52.5%
same,cell viability,[5]; [16],56.6%
same,cell viability,[5]; [17],40.6%
same,cell viability,[5]; [18],124%
same,cell viability,[5]; [19],122%
same,cell viability,[5]; [20],117%
same,cell viability,[5]; [21],128%
same,cell viability,[5]; [22],71.9%
same,cell viability,[5]; [23],27.1%
same,cell viability,[5]; [24],33.2%
same,cell viability,[5]; [25],34.1%
same,cell viability,[5]; [26],32.5%
same,cell viability,[5]; [27],31.3%
same,cell viability,[5]; [28],33.7%
same,cell viability,[5]; [29],118%
same,cell viability,[5]; [30],108%
same,cell viability,[5]; [31],124%
same,cell viability,[5]; [32],112%
same,cell viability,[5]; [33],62.5%
same,cell viability,[5]; [34],35.8%
same,cell viability,[5]; [35],35.2%
same,cell viability,[5]; [36],41.7%
same,cell viability,[5]; [37],40.6%
same,cell viability,[5]; [38],33.4%
same,cell viability,[5]; [39],42.7%

# From the supplement of paper PMC11451515
